Data taken from patent US12109204B2, “Methods for treating muscular dystrophies” (The Regents of the University of California, priority 2018, dated 2024).

Tests used:
Assay type in all cases: cell-based, murine
[1] = test system: mdx myotubes; assay: Fusion index in mdx myotubes; conditions: mdx myotubes (FIG. 12c-d)
[2] = test system: SSPN protein; assay: SSPN protein immunoblot in mdx myotubes; conditions: mdx cells, 48 hours, immunoblot normalized to GAPDH (FIG. 10f)
Protocol: C2C12 cells (American Type Culture Collection) were grown at 37° C. with 5% CO2 in growth media containing DMEM (Gibco) with 20% FBS (Sigma-Aldrich). Upon reaching confluency, the media was replaced with differentiation media containing DMEM with 2% horse serum (Sigma-Aldrich). Conditionally immortalized H2K mdx myoblast cells with a nonsense mutation in exon 23 of dystrophin were a gift from Terrance Partridge, Ph.D. (Children's National Medical Center, Washington, D.C.). Cells were allowed to proliferate on 0.01% gelatin (Sigma-Aldrich) coated plates at 33° C. with 5% CO2 with growth media containing DMEM, 20% HI-FBS (Invitrogen), 2% L-glutamine (Sigma-Aldrich), 2% chicken embryo extract (Accurate Chemical), 1% penicillin-streptomycin (Sigma-Aldrich), and 20U/ml of fresh interferon gamma (Gibco). […] The supernatant was collected, quantified for protein concentration using the DC protein assay (Bio-Rad), and normalized to 2 mg/ml in water and Laemmli sample buffer with a final concentration of 10% glycerol (Sigma-Aldrich), 5% beta-mercaptoethanol (Sigma-Aldrich), 3% sodium dodecyl sulfate (Sigma-Aldrich), and 0.05% bromophenol blue (Sigma-Aldrich). […] Autoradiography films were developed using a SRX-101A tabletop processor (Konica Minolta), scanned to a digital file, and analyzed by densitometry of bands using ImageJ version 1.51s. […]

[3] = test system: MYOG, myogenin; assay: MYOG gene expression by qPCR in C2C12 wild-type myotubes; conditions: 48 hours, normalized to β-actin (FIG. 12a)
Protocol: (§1) RNA from myotubes treated for 48 hours was extracted from cells using Trizol-based (Thermo Fisher Scientific) phase separation. RNA concentrations were determined using a NanoDrop 1000 (Thermo Fisher Scientific) and 750 ng of RNA in a 20 μl reaction was reverse transcribed using iScript cDNA synthesis (Bio-Rad) with the following cycling conditions: 25° C. for 5 minutes, 42° C. for 30 minutes, 85° C. for 5 minutes. For quantitative PCR, SsoFast EvaGreen Supermix (Bio-Rad), 400 nM of each optimized forward and reverse primer (for primer descriptions see Table 1), and cDNA corresponding to 37.5 ng RNA were used to amplify cDNA measured by Applied Biosystems 7300 (Thermo Fisher Scientific) with the following reaction conditions: 55° C. for 2 minutes, 95° C. for 2 minutes, 40 cycles of 95° C. for 10 seconds and 62° C. for 30 seconds, and dissociation stage. Each sample was run in triplicate. Data was analyzed using the ddCT method and normalized to reference gene, GAPDH or β-actin, with vehicle-treated samples serving as the calibrator (relative expression of vehicle control=1). C2C12 cells (American Type Culture Collection) were grown at 37° C. with 5% CO2 in growth media containing DMEM (Gibco) with 20% FBS (Sigma-Aldrich). Upon reaching confluency, the media was replaced with differentiation media containing DMEM with 2% horse serum (Sigma-Aldrich). […]

[4] = test system: UTRN, utrophin; assay: UTRN gene expression by qPCR in C2C12 wild-type myotubes; conditions: C2C12 wild-type myotubes, 48 hours, normalized to β-actin (FIG. 12a)
Protocol: as §1

## CCOC(=O)C1=C(C)NC(C)=C(C(=O)OC)C1c1cccc(Cl)c1Cl (centres unmarked) [Felodipine, 5-O-ethyl 3-O-methyl 4-(2,3-dichlorophenyl)-2,6-dimethyl-1,4-dihydropyridine-3,5-dicarboxylate]
[1]
  fusion index (nuclei in myosin heavy chain positive area/total nuclei in field): does not increase fusion index
[2]
  SSPN protein levels: increases sarcospan protein levels
[2]; listed as felodipine
  SSPN protein levels: increased SSPN protein levels
[3]
  myogenin gene expression: increases
[4]
  utrophin gene expression: increases
